{
  "source": "patent US11878965B2",
  "about": "“Inhibitors of peptidylarginine deiminases” (Gilead Sciences, Inc., priority 2020, dated 2024)",
  "data": [
    {"target": "human PAD4 (Homo sapiens (Human), UniProt Q9UM07)", "sequence (Q9UM07 2-663)": "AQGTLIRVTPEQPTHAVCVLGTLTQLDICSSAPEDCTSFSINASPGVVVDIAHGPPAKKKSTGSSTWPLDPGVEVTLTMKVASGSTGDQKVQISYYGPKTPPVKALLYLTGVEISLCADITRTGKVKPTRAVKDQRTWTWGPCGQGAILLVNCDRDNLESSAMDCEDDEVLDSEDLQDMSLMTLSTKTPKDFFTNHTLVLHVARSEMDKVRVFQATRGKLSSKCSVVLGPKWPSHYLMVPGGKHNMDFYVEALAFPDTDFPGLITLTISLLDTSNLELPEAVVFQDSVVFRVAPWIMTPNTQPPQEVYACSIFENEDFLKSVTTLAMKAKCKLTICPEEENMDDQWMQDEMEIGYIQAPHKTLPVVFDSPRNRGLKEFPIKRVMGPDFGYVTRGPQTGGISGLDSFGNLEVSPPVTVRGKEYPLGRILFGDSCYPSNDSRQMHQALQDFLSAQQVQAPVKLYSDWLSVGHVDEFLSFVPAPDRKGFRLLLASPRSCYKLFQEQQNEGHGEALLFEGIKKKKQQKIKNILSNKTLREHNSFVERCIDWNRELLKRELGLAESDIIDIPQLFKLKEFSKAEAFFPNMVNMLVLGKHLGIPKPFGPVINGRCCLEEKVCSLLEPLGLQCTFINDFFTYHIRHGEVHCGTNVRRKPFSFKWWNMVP", "assay": "In Vitro PAD4 BAEE Biochemical Assay", "conditions": "human PAD4, BAEE substrate; 5 nM PAD4, 2 mM calcium chloride, 3 mM BAEE; geometric mean of multiple experiments", "how_it_was_run": "(§1)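 Recombinant human PAD4 (His-SUMO tag removed, E. coli-expressed), 5 nM, preincubated with compound and 2 mM CaCl2 30 min at 25 °C in MOPS pH 7.6 with DTT; 3 mM BAEE added for 2 h at 25 °C, EDTA stop. Released ammonia detected by o-phthalaldehyde/DTT fluorescence (ex 405, em 535 nm).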", "units": {"IC50": "µM"}, "values": [
      {"smiles": "COc1cc(C(=O)N2C[C@H](N)CC[C@@H]2C)cc2nc(-c3cc4ccc(-c5c(C)ccnc5-c5cnc(C)s5)nc4n3CC3CC3)n(C)c12", "note": "[Example 268, ((2S,5R)-5-amino-2-methylpiperidin-1-yl)(2-(1-(cyclopropylmethyl)-6-(4-methyl-2-(2-methylthiazol-5-yl)pyridin-3-yl)-1H-pyrrolo[2,3-b]pyridin-2-yl)-7-methoxy-1-methyl-1H-benzo[d]imidazol-5-yl)methanone]", "IC50": 0.386},
      {"smiles": "COc1cc(C(=O)N2C[C@H](N)CC[C@@H]2C)cc2nc(-c3cc4ccc(-c5c(C)ccnc5-c5sc(C)nc5C)nc4n3CC3CC3)n(C)c12", "note": "[Example 269, ((2S,5R)-5-amino-2-methylpiperidin-1-yl)(2-(1-(cyclopropylmethyl)-6-(2-(2,4-dimethylthiazol-5-yl)-4-methylpyridin-3-yl)-1H-pyrrolo[2,3-b]pyridin-2-yl)-7-methoxy-1-methyl-1H-benzo[d]imidazol-5-yl)methanone]", "IC50": 0.324},
      {"smiles": "COc1cc(C(=O)N2CCC[C@@H](N)C2)cc2nc(-c3cc4ccc(-c5cccnc5-c5csc(N6CCCCC6)n5)nc4n3CC3CC3)n(C)c12", "note": "[Example 270, (R)-(3-aminopiperidin-1-yl)(2-(1-(cyclopropylmethyl)-6-(2-(2-(piperidin-1-yl)thiazol-4-yl)pyridin-3-yl)-1H-pyrrolo[2,3-b]pyridin-2-yl)-7-methoxy-1-methyl-1H-benzo[d]imidazol-5-yl)methanone]", "IC50": 0.351},
      {"smiles": "CCc1nc(C)c(-c2ncccc2-c2ccc3cc(-c4nc5cc(C(=O)N6CCC[C@@H](N)C6)cc(OC)c5n4C)n(CC4CC4)c3n2)s1", "note": "[Example 271, (R)-(3-aminopiperidin-1-yl)(2-(1-(cyclopropylmethyl)-6-(2-(2-ethyl-4-methylthiazol-5-yl)pyridin-3-yl)-1H-pyrrolo[2,3-b]pyridin-2-yl)-7-methoxy-1-methyl-1H-benzo[d]imidazol-5-yl)methanone]", "IC50": 0.134},
      {"smiles": "COc1cc(C(=O)N2C[C@H](N)CC[C@@H]2C)cc2nc(-c3cc4ccc(N5CCCCC5=O)nc4n3CC3CC3)n(C)c12", "note": "[Example 272, 1-(2-(5-((2S,5R)-5-amino-2-methylpiperidine-1-carbonyl)-7-methoxy-1-methyl-1H-benzo[d]imidazol-2-yl)-1-(cyclopropylmethyl)-1H-pyrrolo[2,3-b]pyridin-6-yl)piperidin-2-one]", "IC50": 0.785},
      {"smiles": "COc1cc(C(=O)N2C[C@H](N)CC[C@@H]2C)cc2nc(-c3cc4ccc(-c5c(C)ccc6[nH]ncc56)nc4n3CC3CC3)n(C)c12", "note": "[Example 273, ((2S,5R)-5-amino-2-methylpiperidin-1-yl)(2-(1-(cyclopropylmethyl)-6-(5-methyl-1H-indazol-4-yl)-1H-pyrrolo[2,3-b]pyridin-2-yl)-7-methoxy-1-methyl-1H-benzo[d]imidazol-5-yl)methanone]", "IC50": 2.33},
      {"smiles": "COc1cc(C(=O)N2C[C@H](N)CC[C@@H]2C)cc2nc(-c3cc4ccc(-c5sc(C(C)C)nc5C)nc4n3CC3CC3)n(C)c12", "note": "[Example 274, ((2S,5R)-5-amino-2-methylpiperidin-1-yl)(2-(1-(cyclopropylmethyl)-6-(2-isopropyl-4-methylthiazol-5-yl)-1H-pyrrolo[2,3-b]pyridin-2-yl)-7-methoxy-1-methyl-1H-benzo[d]imidazol-5-yl)methanone]", "IC50": 4.91},
      {"smiles": "COc1cc(C(=O)N2C[C@H](N)CC[C@@H]2C)cc2nc(-c3cc4ccc(-c5ccc6nnnn6c5C)nc4n3CC3CC3)n(C)c12", "note": "[Example 275, ((2S,5R)-5-amino-2-methylpiperidin-1-yl)(2-(1-(cyclopropylmethyl)-6-(5-methyltetrazolo[1,5-a]pyridin-6-yl)-1H-pyrrolo[2,3-b]pyridin-2-yl)-7-methoxy-1-methyl-1H-benzo[d]imidazol-5-yl)methanone]", "IC50": 0.658},
      {"smiles": "COc1cc(C(=O)N2C[C@H](N)CC[C@@H]2C)cc2nc(-c3cc4ccc(-c5c(C)ccnc5-c5ccccc5)nc4n3CC3CC3)n(C)c12", "note": "[Example 276, ((2S,5R)-5-amino-2-methylpiperidin-1-yl)(2-(1-(cyclopropylmethyl)-6-(4-methyl-2-phenylpyridin-3-yl)-1H-pyrrolo[2,3-b]pyridin-2-yl)-7-methoxy-1-methyl-1H-benzo[d]imidazol-5-yl)methanone]", "IC50": 0.423},
      {"smiles": "COc1nccc(-c2ccccc2)c1-c1ccc2cc(-c3nc4cc(C(=O)N5C[C@H](N)CC[C@@H]5C)cc(OC)c4n3C)n(CC3CC3)c2n1", "note": "[Example 277, ((2S,5R)-5-amino-2-methylpiperidin-1-yl)(2-(1-(cyclopropylmethyl)-6-(2-methoxy-4-phenylpyridin-3-yl)-1H-pyrrolo[2,3-b]pyridin-2-yl)-7-methoxy-1-methyl-1H-benzo[d]imidazol-5-yl)methanone]", "IC50": 3.43},
      {"smiles": "COc1cc(C(=O)N2CCC[C@@H](N)C2)cc2nc(-c3cc4ccc(NC(C)(C)C)nc4n3CC3CC3)n(C)c12", "note": "[Example 278, (R)-(3-aminopiperidin-1-yl)(2-(6-(tert-butylamino)-1-(cyclopropylmethyl)-1H-pyrrolo[2,3-b]pyridin-2-yl)-7-methoxy-1-methyl-1H-benzo[d]imidazol-5-yl)methanone]", "IC50": 9.34},
      {"smiles": "COc1cc(C(=O)N2C[C@H](N)CC[C@@H]2C)cc2nc(-c3cc4ccc(N5CCCC5=O)nc4n3CC3CC3)n(C)c12", "note": "[Example 279, 1-(2-(5-((2S,5R)-5-amino-2-methylpiperidine-1-carbonyl)-7-methoxy-1-methyl-1H-benzo[d]imidazol-2-yl)-1-(cyclopropylmethyl)-1H-pyrrolo[2,3-b]pyridin-6-yl)pyrrolidin-2-one]", "IC50": 1.18},
      {"smiles": "COc1cc(C(=O)N2C[C@H](N)CC[C@@H]2C)cc2nc(-c3cc4ccc(N5C(=O)CCC5C)nc4n3CC3CC3)n(C)c12", "note": "(stereo partly drawn) [Example 280, 1-(2-(5-((2S,5R)-5-amino-2-methylpiperidine-1-carbonyl)-7-methoxy-1-methyl-1H-benzo[d]imidazol-2-yl)-1-(cyclopropylmethyl)-1H-pyrrolo[2,3-b]pyridin-6-yl)-5-methylpyrrolidin-2-one]", "IC50": 0.531},
      {"smiles": "COc1cc(C(=O)N2C[C@H](N)CC[C@@H]2C)cc2nc(-c3cc4ccc(N5C(=O)CCCC5C)nc4n3CC3CC3)n(C)c12", "note": "(stereo partly drawn) [Example 281, 1-(2-(5-((2S,5R)-5-amino-2-methylpiperidine-1-carbonyl)-7-methoxy-1-methyl-1H-benzo[d]imidazol-2-yl)-1-(cyclopropylmethyl)-1H-pyrrolo[2,3-b]pyridin-6-yl)-6-methylpiperidin-2-one]", "IC50": 0.643},
      {"smiles": "COc1cc(C(=O)N2C[C@H](N)CC[C@@H]2C)cc2nc(-c3cc4ccc(-n5c(C)cccc5=O)nc4n3CC3CC3)n(C)c12", "note": "[Example 282, 1-(2-(5-((2S,5R)-5-amino-2-methylpiperidine-1-carbonyl)-7-methoxy-1-methyl-1H-benzo[d]imidazol-2-yl)-1-(cyclopropylmethyl)-1H-pyrrolo[2,3-b]pyridin-6-yl)-6-methylpyridin-2(1H)-one]", "IC50": 0.146},
      {"smiles": "COc1cc(C(=O)N2C[C@H](N)CC[C@@H]2C)cc2nc(-c3cc4ccc(-c5cccnc5-c5ccccc5)nc4n3CC3CC3)n(C)c12", "note": "[Example 283, ((2S,5R)-5-amino-2-methylpiperidin-1-yl)(2-(1-(cyclopropylmethyl)-6-(2-phenylpyridin-3-yl)-1H-pyrrolo[2,3-b]pyridin-2-yl)-7-methoxy-1-methyl-1H-benzo[d]imidazol-5-yl)methanone]", "IC50": 0.32},
      {"smiles": "COc1cc(C(=O)N2C[C@H](N)CC[C@@H]2C)cc2nc(-c3cc4ccc(N5C(=O)CC[C@@H]5C)nc4n3CC3CC3)n(C)c12", "note": "[Example 285, (S)-1-(2-(5-((2S,5R)-5-amino-2-methylpiperidine-1-carbonyl)-7-methoxy-1-methyl-1H-benzo[d]imidazol-2-yl)-1-(cyclopropylmethyl)-1H-pyrrolo[2,3-b]pyridin-6-yl)-5-methylpyrrolidin-2-one]", "IC50": 0.322}
    ]},
    {"target": "human PAD4 (Homo sapiens (Human), UniProt Q9UM07)", "assay": "In Vitro PAD4 BAEE Biochemical Assay", "conditions": "recombinant PAD4 5 nM, 2 mM calcium chloride, 3 mM BAEE substrate; geometric mean of multiple experiments", "how_it_was_run": "as §1", "units": {"IC50": "µM"}, "values": [
      {"smiles": "COC(=O)N(C)c1ccc2cc(-c3nc4cc(C(=O)N5C[C@H](N)[C@@H]6CC[C@H]5C6)cc(OC)c4n3C)n(CC3CC3)c2n1", "note": "[Example 287, methyl (2-(5-((1S,4R,5R)-4-amino-2-azabicyclo[3.2.1]octane-2-carbonyl)-7-methoxy-1-methyl-1H-benzo[d]imidazol-2-yl)-1-(cyclopropylmethyl)-1H-pyrrolo[2,3-b]pyridin-6-yl)(methyl)carbamate]", "IC50": 0.106},
      {"smiles": "COc1cc(C(=O)N2C[C@H](N)[C@@H]3CC[C@H]2C3)cc2nc(-c3cc4ccc([C@@H](C)NC(=O)[C@@H]5C[C@H]5F)nc4n3CC3CC3)n(C)c12", "note": "[Example 288, (1S,2R)-N-((R)-1-(2-(5-((1S,4R,5R)-4-amino-2-azabicyclo[3.2.1]octane-2-carbonyl)-7-methoxy-1-methyl-1H-benzo[d]imidazol-2-yl)-1-(cyclopropylmethyl)-1H-pyrrolo[2,3-b]pyridin-6-yl)ethyl)-2-fluorocyclopropane-1-carboxamide]", "IC50": 0.0708},
      {"smiles": "COc1cc(C(=O)N2C[C@H](N)[C@@H]3CC[C@H]2C3)cc2nc(-c3cc4ccc([C@@H](C)NC(=O)C5(C(F)(F)F)CC5)nc4n3CC3CC3)n(C)c12", "note": "[Example 289, N-((R)-1-(2-(5-((1S,4R,5R)-4-amino-2-azabicyclo[3.2.1]octane-2-carbonyl)-7-methoxy-1-methyl-1H-benzo[d]imidazol-2-yl)-1-(cyclopropylmethyl)-1H-pyrrolo[2,3-b]pyridin-6-yl)ethyl)-1-(trifluoromethyl) cyclopropane-1-carboxamide]", "IC50": 0.174},
      {"smiles": "COc1cc(C(=O)N2C[C@H](N)[C@@H]3CC[C@H]2C3)cc2nc(-c3cc4ccc([C@@H](C)NC(=O)C56CC(C5)C6)nc4n3CC3CC3)n(C)c12", "note": "[Example 290, N-((R)-1-(2-(5-((1S,4R,5R)-4-amino-2-azabicyclo[3.2.1]octane-2-carbonyl)-7-methoxy-1-methyl-1H-benzo[d]imidazol-2-yl)-1-(cyclopropylmethyl)-1H-pyrrolo[2,3-b]pyridin-6-yl)ethyl)bicyclo[1.1.1] pentane-1-carboxamide]", "IC50": 0.0792}
    ]}
  ]
}
